This is an account of results in US20230322822A1, “ARYL PHOSPHOROUS OXIDE COMPOUNDS AND USE THEREOF” (Chengdu Di'ao Jiuhong Pharmaceutical Factory, priority 2020, published 2023).

The test system of data set [1] is Ba/F3 cells expressing EGFR-C797S/T790M/L858R. As to the kind of experiment: Cell anti-proliferation test 1 (CTG), BaF3 EGFR-C797S/T790M/L858R. Conditions: Mus musculus, BaF3, 72 h, read-out: EGFR-C797S/T790M/L858R IC50.
The test system of data set [2] is PC9 cells expressing EGFR-Del19. As to the kind of experiment: Cell anti-proliferation test 2 (SRB), PC9 EGFR-Del19. It is filed as cell-based. Conditions: Homo sapiens, read-out: EGFR-Del19 GI50.
The test system of data set [3] is Ba/F3 cells expressing EGFR-T790M/L858R. In words: Cell anti-proliferation test 1 (CTG), BaF3 EGFR-T790M/L858R. To be noted: Mus musculus, BaF3, 72 h, read-out: EGFR-T790M/L858R IC50.
A short description of data set [4]: Pharmacokinetic test in SD rats. To be noted: male, rat, plasma, PO, 20 mg/kg. It is filed as in vivo. Here is the method: Six SD rats were taken, which were all male, and about 8-9 weeks old, weighing about 430 g/rat, and fasting but allowed to drink water for 18 hours.
The rats were divided into two groups, wherein the rats in group 1 were dosed with compound 2 and the rats in group 2 were dosed with control compound 4, both orally and intragastrically in a dose of 20 mg/kg. A lavage fluid was prepared using 70 mM citric acid buffer (pH 3.0) at an administration volume of 5 mL/kg.
0.6 mL of blood (EDTA-2K anti-coagulated) was collected from rat orbits at 0.5, 1.5, 3, 4.5, 8, 12, 24, 36, 48 and 72 hours after the administration respectively. The plasma was separated and stored at −70° C., and the plasma samples were analyzed using liquid chromatography tandem mass spectrometry (LC-MS/MS). The plasma concentration-time data of the individual rates was analyzed using a non-compartmental model of DAS3.3.1 software and pharmacokinetic parameters of the test compounds were calculated.

The target in the next data set is EML4-ALK kinase (Homo sapiens (Human), UniProt Q9HC35+Q9UM73). As to the kind of experiment: Enzymatic activity test 2 (ADP-Glo) EML4-ALK kinase. It is filed as biochemical. As to the method: (§1) • 1. […] Test information:
(§2) To assess the effect of compounds on the activity of EML4-ALK kinases, kinase activity was tested by measuring ATP consumption in an enzymatic reaction using an ADP-Glo (Promega Corporation) kit. Samples to be tested were dissolved in DMSO and diluted in a gradient. In a microplate, an EML4-ALK kinase, a reaction buffer (containing Tris-HCl with a pH of 7.5, MgCl2, DTT and BSA), a kinase substrate IGF1 and a sample (a total volume of 20 μL per well) were added per well, while a blank control (no enzyme and sample) and a negative control (no sample) were set up; added with 5 μL of ATP, and reacted at 23° C. for 60 minutes; added with ADP-Glo Reagent, and continuously reacted for 40 minutes at room temperature to inactivate the redundant ATP; then, added with a kinase detection reagent, and reacted at room temperature for 30 minutes, then the chemiluminescence intensity L of each well was measured. […] IC50 values were calculated according to the above calculation using 4Parameter Logistic Model in XLfit software. • 3.
A general note: In ADP-Glo the light output rises with the ADP produced.

A further data set concerns the target EGFR-C797S/T790M/L858R (Homo sapiens (Human), UniProt P00533, C797S/L858R/T790M). As to the kind of experiment: Enzymatic activity test (ADP-Glo) EGFR-C797S/T790M/L858R. It is filed as biochemical. Conditions: kinase. The method in brief:
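Each EGFR mutant was preincubated with compound, Poly(Glu4,Tyr1) and Tris-HCl pH 7.5 buffer (MgCl2, DTT, BSA) for 15 min at 23 °C. ATP was then added for 60 min at 23 °C. ADP-Glo luminescence gave ATP consumption, and IC50 came from a 4-parameter logistic fit.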

The target of a further data set is EGFR-T790M/L858R (Homo sapiens (Human), UniProt P00533, L858R/T790M). As to the kind of experiment: Enzymatic activity test (ADP-Glo) EGFR-T790M/L858R. To be noted: kinase. It is filed as biochemical. As to the method:
as §1
as §2, with “of wild-type and mutant EGFR” for “of EML4-ALK”, “an EGFR” for “an EML4-ALK”, “substrate Poly(Glu4, Tyr1)” for “substrate IGF1”, “up; incubated for 15 minutes at 23° C.;” for “up;”, “a Kinase Detection Reagent,” for “a kinase detection reagent,”

pIC50: −log10 of the molar value. Read-outs that look alike come from different tables or passages of the source.

Chain of EML4-ALK kinase (Q9UM73 other isoform, or with tags, fused parts or gaps): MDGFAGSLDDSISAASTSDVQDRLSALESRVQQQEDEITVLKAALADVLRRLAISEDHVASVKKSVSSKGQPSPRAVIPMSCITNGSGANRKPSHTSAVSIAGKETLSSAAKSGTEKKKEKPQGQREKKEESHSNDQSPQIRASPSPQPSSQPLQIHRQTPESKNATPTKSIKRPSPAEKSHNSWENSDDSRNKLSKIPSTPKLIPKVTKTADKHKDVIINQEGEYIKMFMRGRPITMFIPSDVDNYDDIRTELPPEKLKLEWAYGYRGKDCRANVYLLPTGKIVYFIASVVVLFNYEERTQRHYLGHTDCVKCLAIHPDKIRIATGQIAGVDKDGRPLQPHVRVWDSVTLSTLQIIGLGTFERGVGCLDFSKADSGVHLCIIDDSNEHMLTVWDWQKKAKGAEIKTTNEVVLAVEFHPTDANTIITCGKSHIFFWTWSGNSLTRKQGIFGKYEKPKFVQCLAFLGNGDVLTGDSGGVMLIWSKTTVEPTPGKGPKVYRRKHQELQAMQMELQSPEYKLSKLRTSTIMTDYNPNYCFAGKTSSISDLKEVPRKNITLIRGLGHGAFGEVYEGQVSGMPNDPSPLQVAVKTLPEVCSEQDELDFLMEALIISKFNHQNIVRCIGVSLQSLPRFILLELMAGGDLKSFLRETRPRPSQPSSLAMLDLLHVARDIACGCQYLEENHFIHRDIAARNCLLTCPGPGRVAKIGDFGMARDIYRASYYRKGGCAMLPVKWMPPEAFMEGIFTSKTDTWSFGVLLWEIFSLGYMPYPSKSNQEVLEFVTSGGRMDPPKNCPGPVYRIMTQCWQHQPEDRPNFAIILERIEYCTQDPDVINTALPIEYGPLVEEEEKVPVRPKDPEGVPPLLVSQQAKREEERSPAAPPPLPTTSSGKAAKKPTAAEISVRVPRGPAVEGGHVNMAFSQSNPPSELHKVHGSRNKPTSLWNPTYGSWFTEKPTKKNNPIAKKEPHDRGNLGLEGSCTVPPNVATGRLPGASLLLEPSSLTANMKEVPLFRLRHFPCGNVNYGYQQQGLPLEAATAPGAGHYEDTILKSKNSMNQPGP
Chain of EGFR-C797S/T790M/L858R (P00533 25-1210 T790M/C797S/L858R): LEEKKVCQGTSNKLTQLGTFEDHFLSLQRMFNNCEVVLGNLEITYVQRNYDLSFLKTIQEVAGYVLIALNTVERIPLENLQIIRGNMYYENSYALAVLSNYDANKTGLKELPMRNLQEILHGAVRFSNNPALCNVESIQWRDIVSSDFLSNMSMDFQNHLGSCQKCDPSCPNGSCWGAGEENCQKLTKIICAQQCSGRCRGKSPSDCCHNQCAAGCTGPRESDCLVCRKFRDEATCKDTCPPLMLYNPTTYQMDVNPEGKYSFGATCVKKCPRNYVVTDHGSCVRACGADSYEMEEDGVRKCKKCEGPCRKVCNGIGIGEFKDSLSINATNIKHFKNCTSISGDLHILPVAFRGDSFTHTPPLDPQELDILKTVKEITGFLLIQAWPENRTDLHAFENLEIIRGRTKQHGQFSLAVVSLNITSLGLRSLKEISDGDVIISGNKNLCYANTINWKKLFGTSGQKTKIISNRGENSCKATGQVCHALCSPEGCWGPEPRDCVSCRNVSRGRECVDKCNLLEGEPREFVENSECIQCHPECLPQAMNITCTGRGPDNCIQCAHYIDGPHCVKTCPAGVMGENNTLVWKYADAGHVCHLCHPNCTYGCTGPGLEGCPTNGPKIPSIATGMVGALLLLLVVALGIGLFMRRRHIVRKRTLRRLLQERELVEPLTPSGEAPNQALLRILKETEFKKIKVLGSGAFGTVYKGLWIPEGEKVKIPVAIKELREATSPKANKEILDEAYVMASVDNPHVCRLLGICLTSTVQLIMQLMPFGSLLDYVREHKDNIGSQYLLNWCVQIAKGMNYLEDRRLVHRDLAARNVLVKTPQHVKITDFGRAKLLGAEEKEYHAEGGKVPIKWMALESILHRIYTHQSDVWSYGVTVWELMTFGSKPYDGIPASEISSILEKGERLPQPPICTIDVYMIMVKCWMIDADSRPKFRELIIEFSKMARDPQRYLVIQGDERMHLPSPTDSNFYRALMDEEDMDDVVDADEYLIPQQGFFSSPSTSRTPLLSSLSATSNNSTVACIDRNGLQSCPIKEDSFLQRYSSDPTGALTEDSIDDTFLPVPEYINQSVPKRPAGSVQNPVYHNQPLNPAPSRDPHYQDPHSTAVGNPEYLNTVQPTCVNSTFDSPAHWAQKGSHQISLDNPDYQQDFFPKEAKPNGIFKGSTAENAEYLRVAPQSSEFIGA
Chain of EGFR-T790M/L858R (P00533 25-1210 T790M/L858R): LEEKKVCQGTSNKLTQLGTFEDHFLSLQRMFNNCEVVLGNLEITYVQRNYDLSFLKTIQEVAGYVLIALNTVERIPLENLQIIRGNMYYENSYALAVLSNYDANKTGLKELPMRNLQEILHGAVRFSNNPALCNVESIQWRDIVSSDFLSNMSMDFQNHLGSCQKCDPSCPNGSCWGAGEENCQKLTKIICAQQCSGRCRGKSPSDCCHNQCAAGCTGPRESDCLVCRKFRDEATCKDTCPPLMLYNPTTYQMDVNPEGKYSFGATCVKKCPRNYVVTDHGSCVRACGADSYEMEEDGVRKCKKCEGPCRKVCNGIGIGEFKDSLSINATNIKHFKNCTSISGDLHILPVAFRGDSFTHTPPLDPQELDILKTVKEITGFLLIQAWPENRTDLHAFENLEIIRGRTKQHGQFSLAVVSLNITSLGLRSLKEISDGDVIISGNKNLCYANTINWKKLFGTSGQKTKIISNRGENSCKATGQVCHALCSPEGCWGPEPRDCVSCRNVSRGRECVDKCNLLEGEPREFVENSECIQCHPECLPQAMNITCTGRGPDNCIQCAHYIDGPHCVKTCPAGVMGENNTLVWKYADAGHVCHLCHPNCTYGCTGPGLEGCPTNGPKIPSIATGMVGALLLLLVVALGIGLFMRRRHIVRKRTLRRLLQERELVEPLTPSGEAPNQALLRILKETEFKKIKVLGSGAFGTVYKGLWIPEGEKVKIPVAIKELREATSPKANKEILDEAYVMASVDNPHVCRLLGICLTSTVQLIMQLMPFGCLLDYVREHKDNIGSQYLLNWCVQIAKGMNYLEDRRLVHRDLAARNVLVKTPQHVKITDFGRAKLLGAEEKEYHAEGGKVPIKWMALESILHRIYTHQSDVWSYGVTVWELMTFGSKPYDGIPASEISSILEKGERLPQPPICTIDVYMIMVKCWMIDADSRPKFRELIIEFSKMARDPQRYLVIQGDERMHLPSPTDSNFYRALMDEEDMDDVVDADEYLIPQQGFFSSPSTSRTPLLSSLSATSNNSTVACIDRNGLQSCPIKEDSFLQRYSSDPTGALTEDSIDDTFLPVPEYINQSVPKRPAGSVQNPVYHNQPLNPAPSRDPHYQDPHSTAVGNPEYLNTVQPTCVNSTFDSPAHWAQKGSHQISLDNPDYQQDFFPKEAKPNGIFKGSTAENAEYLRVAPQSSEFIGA

Usually GI50 stands for the concentration that inhibits growth by half. The AUC(0-t) is the area under the concentration-time curve up to a stated or last time point. High values mean high exposure, low ones low exposure. The Cmax is the peak of the concentration-time curve. Take `COc1cc(N2CCC(N3CCN(C)CC3)CC2)c(C)cc1Nc1ncc(Br)c(Nc2ccc(C)cc2P(C)(C)=O)n1` [Compound 2]: in data set [1], the pIC50 was 7.19. The GI50 in data set [2] (PC-9, 72 h) came to 48.4 nM. Moreover, the pIC50 in data set [3] was 7.65. In addition, in data set [4], the AUC(0-t) amounted to 96300 ng·h/mL and the Cmax amounted to 2310 ng/mL.

Turning to `COc1cc(N2CCC(N(C)C)CC2)c(C)cc1Nc1ncc(Br)c(Nc2ccc(C)cc2P(C)(C)=O)n1` [Compound 6], the pIC50 at EML4-ALK kinase is 7.84; in data set [1], 7.13; on EGFR-C797S/T790M/L858R, 7.77; against EGFR-T790M/L858R, 7.54; in data set [3] it was 7.53. The GI50 in data set [2] (PC-9, PC9 cells, SRB, 72 hours) amounted to 65.9 nM.

For `COc1cc(N2CCC(N3CCN(C)CC3)CC2)c(Cl)cc1Nc1ncc(Br)c(Nc2ccc(C)cc2P(C)(C)=O)n1` [Compound 14], the pIC50 against EML4-ALK kinase was 7.89; in data set [1] it was 7.12; at EGFR-C797S/T790M/L858R, 8.00; against EGFR-T790M/L858R it was 7.78; in data set [3], 7.76. In addition, the GI50 in data set [2] (PC-9, PC9 cells, SRB, 72 hours) turned out to be 40.2 nM.
